target: T1, rat metabotropic glutamate receptor 5 (rmGluR5) (Rattus norvegicus, UniProt P31424); test: Calcium mobilization (FLIPR) assay for negative allosteric modulation, EC80 glutamate, rmGluR5 in HEK 293; assay type: cell-based; details: HEK293; rmGluR5, inhibition of EC80 glutamate response; read-out: FLIPR maximum inhibition
T1 construct: expressed in transfected cells
Protocol: The cDNA for rat metabotropic glutamate receptor 5 (rmGluR5) and the cDNA for human metabotropic glutamate receptor 5 (hmGluR5) were generous gifts from S. Nakanishi (Kyoto University, Kyoto, Japan). The rmGluR5 or hmGluR5 was stably expressed in a HEK 293 cell line and grown in Dulbecco's Modified Eagle Medium (DMEM) (Invitrogen, Carlsbad, Calif.) with supplements (10% bovine calf serum, 4 mM glutamine, 100 units/mL penicillin, 100 μg/mL streptomycin and 0.75 mM G1418) at 37° C., 5% CO2. Twenty-four hours prior to assay, cells were seeded into 384-well black wall microtiter plates coated with poly-D-lysine. Just prior to assay, media was aspirated and cells dye-loaded (25 μL/well) with 3 μM Fluo-4/0.01% pluronic acid in assay buffer (Hank's Balanced Saline Solution (HBSS)): 150 mM NaCl, 5 mM KCl, 1 mM CaCl2, 1 mM MgCl2, plus 20 mM N-2-Hydroxyethylpiperazine-N′-2-ethanesulfonic acid (HEPES), pH 7.4, 0.1% bovine serum albumin (BSA) and 2.5 mM probenicid) for 1 hour in 5% CO2 at 37° C. After excess dye was discarded, cells were washed in assay buffer and layered with a final volume equal to 30 μL/well. Basal fluorescence is monitored in a fluorometric imaging plate reader (FLIPR) (Molecular Devices, Sunnyvale, Calif.) with an excitation wavelength of 488 nm and an emission range of 500 to 560 nm. Laser excitation energy was adjusted so that basal fluorescence readings were approximately 10,000 relative fluorescent units. Cells were stimulated with an EC20 or an EC80 concentration of glutamate in the presence of a compound to be tested, both diluted in assay buffer, and relative fluorescent units were measured at defined intervals (exposure=0.6 sec) over a 3 min period at room temperature. Basal readings derived from negative controls were subtracted from all samples. Maximum change in fluorescence was calculated for each well. Concentration-response curves derived from the maximum change in fluorescence were analyzed by nonlinear regression (Hill equation). A negative modulator can be identified from these concentration-response curves if a compound produces a concentration dependent inhibition of the EC80 glutamate response.

T1 sequence (P31424 21-1203): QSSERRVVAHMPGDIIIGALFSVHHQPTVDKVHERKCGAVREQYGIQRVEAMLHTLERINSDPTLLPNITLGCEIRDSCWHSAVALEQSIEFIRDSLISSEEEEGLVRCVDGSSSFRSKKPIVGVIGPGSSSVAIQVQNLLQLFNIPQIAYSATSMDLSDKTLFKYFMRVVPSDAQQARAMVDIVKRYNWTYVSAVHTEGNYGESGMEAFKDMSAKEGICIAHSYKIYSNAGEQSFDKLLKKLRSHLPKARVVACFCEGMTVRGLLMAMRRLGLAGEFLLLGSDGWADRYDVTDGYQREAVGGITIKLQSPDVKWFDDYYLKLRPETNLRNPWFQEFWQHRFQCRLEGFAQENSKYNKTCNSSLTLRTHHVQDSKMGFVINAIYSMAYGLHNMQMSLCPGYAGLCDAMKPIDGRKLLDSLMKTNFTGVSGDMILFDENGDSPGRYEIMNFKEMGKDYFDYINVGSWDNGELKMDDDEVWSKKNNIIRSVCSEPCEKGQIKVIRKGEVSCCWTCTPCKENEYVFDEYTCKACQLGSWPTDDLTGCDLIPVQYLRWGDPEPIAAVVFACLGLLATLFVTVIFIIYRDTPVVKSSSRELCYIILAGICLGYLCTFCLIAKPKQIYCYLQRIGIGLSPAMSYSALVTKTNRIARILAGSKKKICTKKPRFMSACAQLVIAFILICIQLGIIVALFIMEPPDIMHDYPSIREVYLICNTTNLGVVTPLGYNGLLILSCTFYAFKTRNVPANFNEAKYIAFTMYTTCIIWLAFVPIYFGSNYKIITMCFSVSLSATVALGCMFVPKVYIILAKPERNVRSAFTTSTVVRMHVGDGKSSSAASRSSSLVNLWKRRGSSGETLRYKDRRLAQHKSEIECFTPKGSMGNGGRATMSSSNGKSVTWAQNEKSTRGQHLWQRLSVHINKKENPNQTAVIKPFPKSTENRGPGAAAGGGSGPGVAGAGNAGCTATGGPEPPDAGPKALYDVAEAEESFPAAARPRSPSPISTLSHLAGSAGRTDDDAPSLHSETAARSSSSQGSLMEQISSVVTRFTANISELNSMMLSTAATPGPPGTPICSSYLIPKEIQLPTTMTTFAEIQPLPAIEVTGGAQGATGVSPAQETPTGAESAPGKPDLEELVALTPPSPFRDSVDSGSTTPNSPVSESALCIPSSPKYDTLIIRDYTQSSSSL

Row | Emax | Structure (SMILES)
1 | 81 to 99% | N#Cc1cccc(N2CC[C@]3(CCC[C@H](NC(=O)c4cccc(Cl)c4)C3)C2=O)c1 (relative stereo) [Example 16, cis-N-[2-(3-Cyano-phenyl)-1-oxo-2-aza-spiro[4.5]dec-7-yl]-3-chloro-benzamide]
2 | 81 to 99% | Cc1cccc(C(=O)N[C@H]2CCC[C@]3(CCN(c4cccc(F)c4)C3=O)C2)n1 (relative stereo) [Example 17, cis-6-Methyl-pyridine-2-carboxylic acid [2-(3-fluoro-phenyl)-1-oxo-2-aza-spiro[4.5]dec-7-yl]-amide]
3 | 81 to 99% | Cc1cccc(C(=O)N[C@H]2CCC[C@@]3(CCN(c4cccc(F)c4)C3=O)C2)n1 (relative stereo) [Example 18, trans-6-Methyl-pyridine-2-carboxylic acid [2-(3-fluoro-phenyl)-1-oxo-2-aza-spiro [4.5]dec-7-yl]-amide]
4 | 81 to 99% | O=C(N[C@H]1CCC[C@@]2(CCN(c3cccc(F)c3)C2=O)C1)c1ccccn1 (relative stereo) [Example 20, trans-Pyridine-2-carboxylic acid [2-(3-fluoro-phenyl)-1-oxo-2-aza-spiro [4.5]dec-7-yl]-amide]
5 | 81 to 99% | Cc1cncc(C(=O)N[C@H]2CCC[C@]3(CCN(c4cccc(F)c4)C3=O)C2)n1 (relative stereo) [Example 21, cis-6-Methyl-pyrazine-2-carboxylic acid [2-(3-fluoro-phenyl)-1-oxo-2-aza-spiro [4.5]dec-7-yl]-amide]
6 | 81 to 99% | Cc1cncc(C(=O)N[C@H]2CCC[C@@]3(CCN(c4cccc(F)c4)C3=O)C2)n1 (relative stereo) [Example 22, trans-6-Methyl-pyrazine-2-carboxylic acid[2-(3-fluoro-phenyl)-1-oxo-2-aza-spiro [4.5]dec-7-yl]-amide]
7 | 81 to 99% | Cc1cccc(N2CC[C@@]3(CCC[C@H](NC(=O)c4cccc(F)c4)C3)C2=O)n1 (relative stereo) [Example 24, trans-3-Fluoro-N-[2-(6-methyl-pyridin-2-yl)-1-oxo-2-aza-spiro[4.5]dec-7-yl]-benzamide]
8 | 81 to 99% | O=C(N[C@H]1CCC[C@]2(CCN(c3ccccn3)C2=O)C1)c1cccc(F)c1 (relative stereo) [Example 26, 3-Fluoro-N-(1-oxo-2-pyridin-2-yl-2-aza-spiro[4.5]dec-7-yl)-benzamide]
9 | 81 to 99% | Cc1ccnc(N2CC[C@]3(CCC[C@H](NC(=O)c4ccccn4)C3)C2=O)n1 (relative stereo) [Example 29, cis-Pyridine-2-carboxylic acid [2-(4-methyl-pyrimidin-2-yl)-1-oxo-2-aza-spiro [4.5]dec-7-yl]-amide]
10 | 81 to 99% | O=C(N[C@H]1CCC[C@]2(CCN(c3cc(F)ccn3)C2=O)C1)c1ccccn1 (relative stereo) [Example 30, cis-Pyridine-2-carboxylic acid [2-(4-fluoro-pyridin-2-yl)-1-oxo-2-aza-spiro[4.5]dec-7-yl]-amide]
11 | 81 to 99% | Cc1cccc(C(=O)N[C@H]2CCC[C@]3(CCN(c4ccc(F)cn4)C3=O)C2)n1 (relative stereo) [Example 31, cis-6-Methyl-pyridine-2-carboxylic acid [2-(5-fluoro-pyridin-2-yl)-1-oxo-2-aza-spiro[4.5]dec-7-yl]-amide]
12 | 81 to 99% | Cc1cccc(C(=O)N[C@H]2CCC[C@]3(CCN(c4cc(F)ccn4)C3=O)C2)n1 (relative stereo) [Example 32, cis-6-Methyl-pyridine-2-carboxylic acid [2-(4-fluoro-pyridin-2-yl)-1-oxo-2-aza-spiro[4.5]dec-7-yl]-amide]
13 | 81 to 99% | O=C(N[C@H]1CCC[C@]2(CCN(c3ccc(F)cn3)C2=O)C1)c1ccccn1 (relative stereo) [Example 33, cis-Pyridine-2-carboxylic acid [2-(5-fluoro-pyridin-2-yl)-1-oxo-2-aza-spiro [4.5]dec-7-yl]-amide]
14 | 81 to 99% | Cc1cccc(C(=O)N[C@H]2CCC[C@]3(CCN(c4nccc(C)n4)C3=O)C2)n1 (relative stereo) [Example 34, cis-6-Methyl-pyridine-2-carboxylic acid [2-(4-methyl-pyrimidin-2-yl)-1-oxo-2-aza-spiro[4.5]dec-7-yl]-amide]
15 | 81 to 99% | O=C(N[C@H]1CCC[C@]2(CCN(c3ccc(F)cn3)C2=O)C1)c1cccc(F)c1 (relative stereo) [Example 35, cis-3-Fluoro-N-[2-(5-fluoro-pyridin-2-yl)-1-oxo-2-aza-spiro[4.5]dec-7-yl]-benzamide]
16 | 81 to 99% | O=C(N[C@H]1CCC[C@]2(CCN(c3cc(F)ccn3)C2=O)C1)c1cccc(F)c1 (relative stereo) [Example 36, cis-3-Fluoro-N-[2-(4-fluoro-pyridin-2-yl)-1-oxo-2-aza-spiro[4.5]dec-7-yl]-benzamide]
17 | 81 to 99% | Cc1ccnc(N2CC[C@]3(CCC[C@H](NC(=O)c4cccc(F)c4)C3)C2=O)n1 (relative stereo) [Example 37, cis-3-Fluoro-N-[2-(4-methyl-pyrimidin-2-yl)-1-oxo-2-aza-spiro[4.5]dec-7-yl]-benzamide]
18 | 81 to 99% | Cc1cncc(N2CC[C@]3(CCC[C@H](NC(=O)c4cccc(F)c4)C3)C2=O)n1 (relative stereo) [Example 38, cis-3-Fluoro-N-[2-(6-methyl-pyrazin-2-yl)-1-oxo-2-aza-spiro[4.5]dec-7-yl]-benzamide]
19 | 81 to 99% | Cc1cncc(N2CC[C@]3(CCC[C@H](NC(=O)c4ccccn4)C3)C2=O)n1 (relative stereo) [Example 39, cis-Pyridine-2-carboxylic acid [2-(6-methyl-pyrazin-2-yl)-1-oxo-2-aza-spiro [4.5]dec-7-yl]-amide]
20 | 81 to 99% | Cc1cccc(C(=O)N[C@H]2CCC[C@]3(CCN(c4cncc(C)n4)C3=O)C2)n1 (relative stereo) [Example 40, cis-6-Methyl-pyridine-2-carboxylic acid [2-(6-methyl-pyrazin-2-yl)-1-oxo-2-aza-spiro[4.5]dec-7-yl]-amide]
21 | 81 to 99% | Cc1cccc(C(=O)N[C@H]2CCC[C@]3(CCN(c4cccc(C#N)n4)C3=O)C2)n1 (relative stereo) [Example 43, cis-6-Methyl-pyridine-2-carboxylic acid [2-(6-cyano-pyridin-2-yl)-1-oxo-2-aza-spiro[4.5]dec-7-yl]-amide]
22 | 81 to 99% | Cc1cccc(C(=O)N[C@H]2CCC[C@]3(CCN(c4ccccc4)C3=O)C2)n1 (relative stereo) [Example 46, cis-6-Methyl-pyridine-2-carboxylic acid (1-oxo-2-phenyl-2-aza-spiro[4.5]dec-7-yl)-amide]
23 | 81 to 99% | Cc1cccc(N2CC[C@]3(CCC[C@H](NC(=O)c4cccc(C)n4)C3)C2=O)c1 (relative stereo) [Example 47, cis-6-Methyl-pyridine-2-carboxylic acid (1-oxo-2-m-tolyl-2-aza-spiro[4.5]dec-7-yl)-amide]
24 | 81 to 99% | Cc1ccnc(N2CC[C@]3(CCC[C@H](NC(=O)c4cccc(C)n4)C3)C2=O)c1 (relative stereo) [Example 48, cis-6-Methyl-pyridine-2-carboxylic acid [2-(4-methyl-pyridin-2-yl)-1-oxo-2-aza-spiro[4.5]dec-7-yl]-amide]
25 | 81 to 99% | Cc1ccc(N2CC[C@]3(CCC[C@H](NC(=O)c4cccc(C)n4)C3)C2=O)nc1 (relative stereo) [Example 49, cis-6-Methyl-pyridine-2-carboxylic acid [2-(5-methyl-pyridin-2-yl)-1-oxo-2-aza-spiro[4.5]dec-7-yl]-amide]
